Assay [1] deals with p-Stat3 and β-catenin. In words: cancer stem cell markers in cancer xenograft models (immunofluorescence). Type of assay: in vivo, athymic nude mice. As to conditions: cancer xenograft tumor model, tumors harvested after first dosing; FIG. 6. The method, then: The effects of 2-acetylnaphtho[2,3-b]furan-4,9-dione on cancer stem cell markers was also examined in cancer xenograft models with and without irinotecan. Human cancer cells were subcutaneously implanted into the right flank of 5-7 weeks old female athymic nude mice. When tumor size reached 200 mm^3, animals were treated with 2-acetylnaphtho[2,3-b]furan-4,9-dione, irinotecan, or a combination of 2-acetylnaphtho[2,3-b]furan-4,9-dione and irinotecan. Tumors were harvested after first dosing.
The harvested tissues were fixed in 3.7% neutral buffered formaldehyde at 4° C. for overnight. The paraffin was embedded, cut to about 5 microns, and affixed onto positively charged slides. After being baked and de-paraffinized, the slides with tumor or control tissues were incubated in 10 mM Sodium Citrate (pH 6.0) for 10 minutes. After antigen retrieval, slides were probed with primary antibodies P-STAT3 (rabbit, Cell Signaling, 1:100), 13-Catenine (mouse, Santa Cruz, 1:400) at 4° C. overnight, and then Alexa Fluor fluorescent dyes-conjugated secondary antibodies (1:500, Invitrogen). After mounting with ProLong mounting medium with DAPI (Invitrogen), the slides were examined under a Zeiss fluorescence microscope with 20× objective, and analyzed with Zen software.

Assay [2] has as its system FaDu cancer stem cells. Nature of the assay: stemness gene expression versus chemo- and targeted therapeutics. Type of assay: cell-based. The following applies: 24 hours, 2-acetylnaphtho[2,3-b]furan-4,9-dione 2 mM, sunitinib 20 mM, gemcitabine 2 mM, carboplatin 32 mM, FIGS. 4(A)-(D). The method, then:
FIGS. 4(A)-(D) depict FaDu cancer stem cells that were treated for 24 hours with DMSO and: (i) 2-acetylnaphtho[2,3-b]furan-4,9-dione (2 mM) (FIG. 4(A)), (ii) sunitinib (20 mM) (FIG. 4(B)), (iii) gemcitabine (2 mM) (FIG. 4(C)), or (iv) carboplatin (32 mM) (FIG. 4(D)).

The subject of assay [3] is mCRC. The following applies: Single Agent, panitumumab value for K-Ras WT, cited from earlier work.
Assay [4] deals with cancer stem cells. Nature of the assay: effects on cancer stem cells with and without 5-fluorouracil. Type of assay: cell-based. The following applies: FIG. 7. The text has this:
The effects on cancer stem cells of 2-acetylnaphtho[2,3-b]furan-4,9-dione was also examined with and without 5-fluorouracil by using methods similar to those disclosed in U.S. pre-grant Publication No. 2012/0252763, Example 3.

The values that follow come from patent publication US20180098959A1, “METHODS FOR TREATING CANCER” (BOSTON BIOMEDICAL, INC., priority 2015, published 2018).

Entries after “also recorded” stand apart in the source; their conditions may differ. Like-named read-outs stand apart in the source and are kept apart here.

In the case of `CCc1c2c(nc3ccc(OC(=O)N4CCC(N5CCCCC5)CC4)cc13)-c1cc3c(c(=O)n1C2)COC(=O)[C@]3(O)CC` [irinotecan, reference compound], the “staining for stem cell markers (p-Stat3 and β-catenin)” value in assay [1] is “enhanced staining”. Also, the “expression of self-renewal / CSC genes (β-Catenin, Nanog, Smo, Sox2)” value (“expression of self-renewal / CSC genes” below) in assay [2] is given as “increased CSC gene expression in certain cases”.
Turning to `CNC(=O)c1cc(Oc2ccc(NC(=O)Nc3ccc(Cl)c(C(F)(F)F)c3)c(F)c2)ccn1` [regorafenib], in assay [2], the “expression of self-renewal / CSC genes” value is given as “increased CSC gene expression in certain cases”.
Still for that read-out and setting: under `N.N.O=C([O-])C1(C(=O)[O-])CCC1.[Pt+2]` [carboplatin] stands “increased CSC gene expression in certain cases”; under `O=C1[O][Pt]2([NH][C@@H]3CCCC[C@H]3[NH]2)[O]C1=O` [oxaliplatin], “increased CSC gene expression in certain cases”.
`CCCCCOC(=O)Nc1nc(=O)n([C@@H]2O[C@H](C)[C@@H](O)[C@H]2O)cc1F` [Capecitabine, capecitabine]: the “Historical DCR (in Evaluable patients with mCRC)” value in assay [3] and in assay [3] (listed as capecitabine) was 15% in each case.
In the case of panitumumab, the “Historical DCR (in Evaluable patients with mCRC)” value in assay [3] is on record as 30-40% (K-Ras WT); in assay [3] (listed as panitumumab), 30-40%.
Regarding `Nc1ccn([C@@H]2O[C@H](CO)[C@@H](O)C2(F)F)c(=O)n1` [gemcitabine], in assay [2], the “expression of self-renewal / CSC genes” value was “increased CSC gene expression in certain cases”.
For the compound `O=c1[nH]cc(F)c(=O)[nH]1` [5-fluorouracil, reference compound], in assay [4], the “increase in the number of cancer stem cells compared to control cells” value was “approximately 3 fold”. Further, in assay [2], the “expression of self-renewal / CSC genes” value was “increased CSC gene expression in certain cases”.
As to “5-fluorouracil and 2-acetylnaphtho[2,3-b]furan-4,9-dione”, the “effect of the combination on cancer stem cells / cancer stem cell growth” value in assay [4] (versus 5-fluorouracil alone and both agents alone) is on record as “attenuated; also recorded: greater than additive effect”.
